In ChEMBL document CHEMBL3734705, “Synthesis and in vitro cytotoxicity of novel C-12 substituted-14-deoxy-andrographolide derivatives as potent anti-cancer agents” (2015):

How the values were obtained:
[1] = system: NCI-H522; assay: Cytotoxicity against human NCI-H522 cells assessed as growth inhibition at 10 uM after 48 hrs by SRB assay; format: functional; conditions: NCI-H522, 48 h, read-out: GI
[2] = Cytotoxicity against human SF268 cells assessed as growth inhibition at 10 uM after 48 hrs by SRB assay; format: functional; conditions: SF-268, 48 h, read-out: GI
[3] = Cytotoxicity against human OVCAR8 cells assessed as growth level at 10 uM after 48 hrs by SRB assay; format: functional, OVCAR-8
[4] = system: K562; assay: Cytotoxicity against human K562 cells after 48 hrs by SRB assay; format: functional; conditions: K562, 48 h
[5] = Cytotoxicity against human HCT15 cells after 48 hrs by SRB assay; format: functional; conditions: HCT-15, 48 h
[6] = system: SK-MEL-5; assay: Cytotoxicity against human SK-MEL-5 cells assessed as growth level at 10 uM after 48 hrs by SRB assay; format: functional
[7] = Cytotoxicity against human BT549 cells assessed as growth inhibition at 10 uM after 48 hrs by SRB assay; format: functional; conditions: BT-549, 48 h, read-out: GI
[8] = Cytotoxicity against human UACC257 cells after 48 hrs by SRB assay; format: functional; conditions: UACC-257, 48 h
[9] = Cytotoxicity against human RXF393 cells assessed as growth level at 10 uM after 48 hrs by SRB assay; format: functional, RXF 393
[10] = system: HT-29; assay: Cytotoxicity against human HT-29 cells assessed as growth inhibition at 10 uM after 48 hrs by SRB assay; format: functional; conditions: HT-29, 48 h, read-out: GI
[11] = system: KM12; assay: Cytotoxicity against human KM12 cells after 48 hrs by SRB assay; format: functional; conditions: KM12, 48 h
[12] = system: SR; assay: Cytotoxicity against human SR cells assessed as growth level at 10 uM after 48 hrs by SRB assay; format: functional
[13] = Cytotoxicity against human HCT116 cells after 48 hrs by SRB assay; format: functional; conditions: HCT-116, 48 h
[14] = Cytotoxicity against human Caki1 cells assessed as growth level at 10 uM after 48 hrs by SRB assay; format: functional, CAKI-1
[15] = Cytotoxicity against human OVCAR5 cells assessed as growth level at 10 uM after 48 hrs by SRB assay; format: functional, OVCAR-5
[16] = system: SN12C; assay: Cytotoxicity against human SN12C cells assessed as growth level at 10 uM after 48 hrs by SRB assay; format: functional
[17] = system: A498; assay: Cytotoxicity against human A498 cells after 48 hrs by SRB assay; format: functional; conditions: A498, 48 h
[18] = Cytotoxicity against human UO31 cells after 48 hrs by SRB assay; format: functional; conditions: UO-31, 48 h
[19] = Cytotoxicity against human SNB75 cells assessed as growth level at 10 uM after 48 hrs by SRB assay; format: functional, SNB-75
[20] = system: KM12; assay: Cytotoxicity against human KM12 cells assessed as growth level at 10 uM after 48 hrs by SRB assay; format: functional
[21] = system: NCI-H322M; assay: Cytotoxicity against human NCI-H322M cells assessed as growth level at 10 uM after 48 hrs by SRB assay; format: functional
[22] = Cytotoxicity against human UACC257 cells assessed as growth level at 10 uM after 48 hrs by SRB assay; format: functional, UACC-257
[23] = Cytotoxicity against human UO31 cells assessed as growth level at 10 uM after 48 hrs by SRB assay; format: functional, UO-31
[24] = Cytotoxicity against human SF539 cells assessed as growth inhibition at 10 uM after 48 hrs by SRB assay; format: functional; conditions: SF-539, 48 h, read-out: GI
[25] = system: CCRF-CEM; assay: Cytotoxicity against human CCRF-CEM cells after 48 hrs by SRB assay; format: functional
[26] = Cytotoxicity against human HCT15 cells assessed as growth inhibition at 10 uM after 48 hrs by SRB assay; format: functional; conditions: HCT-15, 48 h, read-out: GI
[27] = Cytotoxicity against human LOXIMVI cells assessed as growth inhibition at 10 uM after 48 hrs by SRB assay; format: functional; conditions: LOX IMVI, read-out: GI
[28] = Cytotoxicity against human COLO205 cells assessed as growth level at 10 uM after 48 hrs by SRB assay; format: functional, COLO 205
[29] = Cytotoxicity against human IGROV1 cells assessed as growth level at 10 uM after 48 hrs by SRB assay; format: functional, IGROV-1
[30] = system: HT-29; assay: Cytotoxicity against human HT-29 cells after 48 hrs by SRB assay; format: functional; conditions: HT-29, 48 h
[31] = Cytotoxicity against human SF295 cells assessed as growth inhibition at 10 uM after 48 hrs by SRB assay; format: functional; conditions: SF-295, 48 h, read-out: GI
[32] = system: NCI-H23; assay: Cytotoxicity against human NCI-H23 cells after 48 hrs by SRB assay; format: functional; conditions: NCI-H23, 48 h
[33] = Cytotoxicity against human HCC2998 cells assessed as growth level at 10 uM after 48 hrs by SRB assay; format: functional, HCC 2998
[34] = system: T47D; assay: Cytotoxicity against human T47D cells assessed as growth level at 10 uM after 48 hrs by SRB assay; format: functional
[35] = system: U-251; assay: Cytotoxicity against human U251 cells assessed as growth level at 10 uM after 48 hrs by SRB assay; format: functional
[36] = Cytotoxicity against human MOLT4 cells assessed as growth inhibition at 10 uM after 48 hrs by SRB assay; format: functional; conditions: MOLT-4, 48 h, read-out: GI
[37] = system: NCI-H23; assay: Cytotoxicity against human NCI-H23 cells assessed as growth level at 10 uM after 48 hrs by SRB assay; format: functional
[38] = Cytotoxicity against human OVCAR4 cells after 48 hrs by SRB assay; format: functional; conditions: OVCAR-4, 48 h
[39] = system: Malme-3M; assay: Cytotoxicity against human MALME-3M cells assessed as growth inhibition at 10 uM after 48 hrs by SRB assay; format: functional; conditions: read-out: GI
[40] = Cytotoxicity against human COLO205 cells after 48 hrs by SRB assay; format: functional; conditions: COLO 205, 48 h
[41] = system: 786-0; assay: Cytotoxicity against human 786-0 cells assessed as growth level at 10 uM after 48 hrs by SRB assay; format: functional
[42] = Cytotoxicity against human SNB19 cells assessed as growth level at 10 uM after 48 hrs by SRB assay; format: functional, SNB-19
[43] = read-out: LC50 (the source's name)

C=C1CC[C@@H]2[C@](C)(COC(C)=O)[C@H](OC(C)=O)CC[C@@]2(C)[C@@H]1C/C=C1/C(=O)OC[C@H]1OC(C)=O
inhibition of growth at 10 µM [1]: 41.6%
inhibition of growth at 10 µM [2]: 12.9%
Activity [3]: 27.13%
GI50 [4]: 2.63 µM
LC50 (50% lethal concentration) [4]: > 100 µM
TGI [4]: 32.1 µM
GI50 [5]: 1.58 µM
LC50 [5]: 65.5 µM
TGI [5]: 4.33 µM
Activity [6]: 56.18%
inhibition of growth at 10 µM [7]: 72.6%
GI50 [8]: 6.2 µM
LC50 (concentration killing 50% of cells) [8]: 53.2 µM
TGI [8]: 19.9 µM
Activity [9]: -7.35%
inhibition of growth at 10 µM [10]: 39.4%
GI50 [11]: 10.5 µM
LC50 [11]: 73.4 µM
TGI [11]: 27.7 µM
Activity [12]: 5.73%
GI50 [13]: 1.45 µM
LC50 (concentration killing 50% of cells) [13]: 6.15 µM
TGI [13]: 2.98 µM
Activity [14]: 81.51%
Activity [15]: 53.7%
Activity [16]: 33.42%
GI50 [17]: 14.4 µM
TGI [17]: 27.5 µM
CC50 [17, 43]: 52.6 µM
GI50 [18]: 1.91 µM
LC50 (concentration killing 50% of cells) [18]: 7.92 µM
TGI [18]: 3.89 µM
Activity [19]: 44.87%
Activity [20]: 52.83%
Activity [21]: 101.35%
Activity [22]: 66.52%
Activity [23]: 62.83%
inhibition of growth at 10 µM [24]: 91.5%
GI50 [25]: 1.12 µM
TGI [25]: 5.32 µM
CC50 [25, 43]: > 100 µM
inhibition of growth at 10 µM [26]: 23%
inhibition of growth at 10 µM [27]: 74.4%
Activity [28]: 22.03%
Activity [29]: 102.65%
GI50 [30]: 2.58 µM
LC50 [30]: > 100 µM
inhibition of growth at 10 µM [31]: 4.98%
GI50 [32]: 6.22 µM
LC50 [32]: 66.9 µM
TGI [32]: 23 µM
Activity [33]: 67.32%
Activity [34]: 42.77%
Activity [35]: 54.02%
inhibition of growth at 10 µM [36]: 6.05%
Activity [37]: 80.92%
GI50 [38]: 3.57 µM
TGI [38]: 15.4 µM
CC50 [38, 43]: 41.8 µM
inhibition of growth at 10 µM [39]: 22.3%
GI50 [40]: 3.37 µM
LC50 [40]: > 100 µM
TGI [40]: 11.4 µM
Activity [41]: -10.88%
Activity [42]: 82.96%

C=C1CC[C@@H]2[C@](C)(COC(C)=O)[C@H](OC(C)=O)CC[C@@]2(C)[C@@H]1CC(NCCCCCCCC)C1=CCOC1=O (mixture of isomers)
inhibition of growth at 10 µM [1]: 35.6%
inhibition of growth at 10 µM [2]: 32.2%
Activity [3]: 70.96%
Activity [6]: 50.57%
inhibition of growth at 10 µM [7]: 30.4%
Activity [9]: 85.68%
inhibition of growth at 10 µM [10]: 29.5%
Activity [12]: 36.8%
Activity [14]: 68.67%
Activity [15]: 93.23%
Activity [16]: 73.09%
Activity [19]: 74.62%
Activity [20]: 68.58%
Activity [21]: 98.01%
Activity [22]: 61.1%
Activity [23]: 56.13%
inhibition of growth at 10 µM [24]: 10.8%
inhibition of growth at 10 µM [26]: 33%
inhibition of growth at 10 µM [27]: 46.1%
Activity [28]: 70.75%
Activity [29]: 70.18%
inhibition of growth at 10 µM [31]: 19%
Activity [33]: 91.44%
Activity [34]: 57.98%
Activity [35]: 55.53%
inhibition of growth at 10 µM [36]: 63.5%
Activity [37]: 70.76%
inhibition of growth at 10 µM [39]: 15.8%
Activity [41]: 79.87%
Activity [42]: 78.29%
